From PMC9794833, “Ligand recognition and activation of neuromedin U receptor 2” (Nature Communications, 2022)
Values joined by “and” are separate entries in the source; they are usually repeats but may differ in a detail not shown here. Equal values may be shown once. Read-outs that look alike come from different tables or passages of the source. Where no end group is shown, it is not given here.

Legend:
Type in all cases: cell-based
NMU2 [1] = target: T1, NMU2 (Homo sapiens, UniProt Q9GZQ4); test: TRUPATH Gαi1βγ biosensor assay, WT NMU2; details: for NmU-25–induced G protein activation of NMU2: single replicates, in % (unit assumed)
T1 construct: HA signal peptide (N); expressed in transfected cells; host or cells: HEK 293F
T1 sequence (Q9GZQ4 whole entry): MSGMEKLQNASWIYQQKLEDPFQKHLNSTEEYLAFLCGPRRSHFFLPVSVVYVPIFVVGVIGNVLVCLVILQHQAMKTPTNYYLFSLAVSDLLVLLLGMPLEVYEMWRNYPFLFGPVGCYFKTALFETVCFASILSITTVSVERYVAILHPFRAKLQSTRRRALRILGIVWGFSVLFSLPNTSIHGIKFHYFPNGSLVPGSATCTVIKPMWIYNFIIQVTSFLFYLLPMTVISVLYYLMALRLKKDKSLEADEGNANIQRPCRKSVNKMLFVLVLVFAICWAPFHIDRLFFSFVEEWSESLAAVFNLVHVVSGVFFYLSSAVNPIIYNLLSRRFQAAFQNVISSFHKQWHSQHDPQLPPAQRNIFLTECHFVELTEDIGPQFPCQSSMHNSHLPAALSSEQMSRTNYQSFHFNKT
Protocol: (§1) The plasmids of Gαi1, Gβ3, and Gγ9 used for the TRUPATH assay were purchased from Addgene (TRUPATH Kit, #1000000163). NMU2 constructs of WT and mutants were constructed into a PTT5 vector (Invitrogen) with an N-terminal HA signal peptide followed by a Flag tag. HEK 293F cells were transiently transfected with WT or mutants of NMU2, Gαi1, Gβ3, and Gγ9 at an […] ratio of 4:1:1:1 with a total of 3500 ng plasmid DNA using a transfection reagent (PEI MAX 2000, Polysciences) and cultivated at 37 °C with 5 % CO2. Cells were collected after 48-h transfection. The expression level of the receptor was measured by incubating 10 μl cells with 15 μl TBS buffer supplemented with 4% bovine serum albumin, 20% (v/v) viability staining solution7-AAD (Invitrogen, Cat#00-6993-50), and ANTI-FLAG M2-FITC antibody (Sigma, F4049; 1:100 diluted by TBS) at 4 °C for 20 min. After incubation, 175 μl TBS buffer was added, and the fluorescence signal on the cell surface was detected by an FCM (flow cytometry) reader (Millipore). The cells were diluted with 1× HBSS (Hank’s balanced salt solution) balanced buffer supplemented with 25 mM HEPES, pH 7.4, and seeded onto the 96-well opaque cell culture plates (Beyotime) at a density of 18,000 cells per well by 60 μl. Freshly prepared 50 μM coelenterazine 400a (Nanolight Technologies) was added into the well by 10 μl. After a 5 min equilibration time in the darkness, plates were then read in a Synerg^TM H1 microplate reader (BioTek) with excitation at 395 nm and emission at 410 and 515 nm by serially three times. Then, 30 μl of 3.3× agonists were added into the wells with a gradient final concentration from 10^−4–10^−13 M. Plates were read immediately again by serially five times. Data were processed and analyzed following the method in the literature by using GraphPad Prism 8.0.

[2] = target: T2, NMU2 engineered construct (Homo sapiens, UniProt Q9GZQ4); test: TRUPATH assay, engineered NMU2 construct used for cryo-EM
T2 construct: HA signal peptide (N); Flag (N); PreScission protease site (C); twin-strep (C); expressed in transfected cells
T2 sequence (Q9GZQ4 1-355 limits assumed, change not shown): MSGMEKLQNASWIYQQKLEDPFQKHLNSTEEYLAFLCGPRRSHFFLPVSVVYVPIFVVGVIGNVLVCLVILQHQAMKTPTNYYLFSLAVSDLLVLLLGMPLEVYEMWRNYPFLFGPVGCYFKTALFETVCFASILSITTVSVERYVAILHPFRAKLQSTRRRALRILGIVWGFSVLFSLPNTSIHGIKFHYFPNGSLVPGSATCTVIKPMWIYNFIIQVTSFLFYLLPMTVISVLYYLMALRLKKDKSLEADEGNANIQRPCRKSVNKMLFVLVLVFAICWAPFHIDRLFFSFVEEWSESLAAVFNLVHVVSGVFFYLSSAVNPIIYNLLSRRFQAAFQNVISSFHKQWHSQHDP
Text: To facilitate expression and purification of the NmU-25–NMU2–Gi1 complex, a hemagglutinin (HA) signal peptide followed by a flag tag was introduced at the N terminus of NMU2, while the flexible C-terminal residues of the receptor (Q356-T415) were replaced by a PreScission protease site followed by a twin-strep affinity tag (Supplementary Fig. 1a, b). […] Dominant-negative Gαi1 (DNGαi1) containing five mutations (S47C, G202T, G203A, E245A, and A326S) was used to improve the stability of the complex as these mutations lead to a preference for a nucleotide-free state, and prevent the dissociation of Gβγ from the heterotrimer[20],[21]. Over 8700 movies were collected, and the structure of the NmU-25–NMU2–Gi1 complex was determined by cryo-EM single-particle analysis at a global nominal resolution of 3.3 Å (Supplementary Fig. 2a–f, Supplementary Table 1). […]
The plasmids of Gαi1, Gβ3, and Gγ9 used for the TRUPATH assay were purchased from Addgene (TRUPATH Kit, #1000000163). […] The expression level of the receptor was measured by incubating 10 μl cells with 15 μl TBS buffer supplemented with 4% bovine serum albumin, 20% (v/v) viability staining solution7-AAD (Invitrogen, Cat#00-6993-50), and ANTI-FLAG M2-FITC antibody (Sigma, F4049; 1:100 diluted by TBS) at 4 °C for 20 min. […] Data were processed and analyzed following the method in the literature by using GraphPad Prism 8.0.

NMU2 E105A = target: T3, NMU2 E105A (Homo sapiens, UniProt Q9GZQ4, E105A); test: TRUPATH assay, NMU2 mutant E105A
T3 construct: HA signal peptide (N); expressed in transfected cells; host or cells: HEK 293F
T3 sequence (Q9GZQ4 whole entry E105A): as the sequence (Q9GZQ4 whole entry) above, with E105A counted along it
Protocol: as §1

NMU2 W281A = target: T4, NMU2 W281A (Homo sapiens, UniProt Q9GZQ4, W281A); test: TRUPATH assay, NMU2 mutant W281A
T4 construct: HA signal peptide (N); expressed in transfected cells; host or cells: HEK 293F
T4 sequence (Q9GZQ4 whole entry W281A): as the sequence (Q9GZQ4 whole entry) above, with W281A counted along it
Protocol: as §1

NMU2 A302H = target: T5, NMU2 A302H (Homo sapiens, UniProt Q9GZQ4, A302H); test: TRUPATH assay, NMU2 mutant A302H
T5 construct: HA signal peptide (N); expressed in transfected cells; host or cells: HEK 293F
T5 sequence (Q9GZQ4 whole entry A302H): as the sequence (Q9GZQ4 whole entry) above, with A302H counted along it
Protocol: as §1

NMU2 [3] = target: T1, NMU2; test: IP accumulation assay (IP-One Gq kit), WT NMU2; details: IP accumulation
Protocol: (§2) NMU2 constructs of WT and mutants were constructed into PTT5 vector (Invitrogen), as mentioned above. HEK 293F cells were transiently transfected with WT or mutants with total of 2000 ng plasmid DNA using transfection reagent (PEI MAX 2000, Polysciences) and cultivated at 37 °C with 5% CO2. Cells were collected after 48-h transfection. IP accumulation was tested by IP-One Gq assay kit (Cisbio Bioassays, 62IPAPEJ) following the instruction manual. In general, cells were resuspended with 1× HBSS buffer containing 20 mM LiCl (stimulation buffer) and seeded into the white 384-well microplates (Proxi Plate^TM-384 Plus, PerkinElmer) with a density of 20,000 per well. Cells were preincubated with 10^−5 M R-PSOP (provided by Boehringer Ingelheim company, Germany) and gradient concentration from 10^−4 to 10^−11 M of NMU-25 or gradient concentration 10^−4 to 10^−11 M of NMU-25 alone in stimulation buffer at 37 °C for 90 min. The cryptate-labeled anti-IP1 monoclonal antibody and d2-labeled IP1 were diluted with lysis & detection buffer (1:20) and added to each well by 3 μl, respectively. The plates were incubated at room temperature for 60 minutes and then read in a Synerg^TM H1 microplate reader (BioTek) with excitation at 330 nm and emission at 620 and 665 nm. The IP1 production was calculated by a standard dose–response curve and analyzed by GraphPad Prism 8.0.

NMU2 F131L = target: T6, NMU2 F131L (Homo sapiens, UniProt Q9GZQ4, F131L); test: IP accumulation assay, NMU2 mutant F131L; details: IP accumulation
T6 construct: HA signal peptide (N); expressed in transfected cells; host or cells: HEK 293F, transient transfection, PTT5 vector
T6 sequence (Q9GZQ4 whole entry F131L): as the sequence (Q9GZQ4 whole entry) above, with F131L counted along it
Protocol: as §2

[4] = read-out: pEC50 mean±SEM (converted)
[5] = read-out: pEC50±SEM, NmU-25 alone (converted)

With FRVDEEFQSPFASQSRGYFLFRPRN-NH2 [NmU-25] the “potency on Gi1, Gq and G11 signaling pathways (in words)” value (NMU2 [1]; TRUPATH, peer review file) was “highest potency by coupling Gi1”, the “EC50 ratio EC50(mutant)/EC50(WT)” value (NMU2 [1]; WT) was 1 and the “Span (window between Emax and minimal agonist response)” value (“Span” below) (NMU2 [1]; WT) was 100±5 % of WT. The “NmU-25–induced G protein activation of NMU2” value (NMU2 [1]; WT, Log [NmU-25] M -4) was 96.1513 and 120.034 and 131.645 and 132.135 and 112.945 and 100.303 and 111.674 and 103.511, the “NmU-25–induced G protein activation of NMU2” value (NMU2 [1]; WT, Log [NmU-25] M -5) was 94.5176 and 100.381 and 95.0326 and the “NmU-25–induced G protein activation of NMU2” value (NMU2 [1]; WT, Log [NmU-25] M -8) was 14.7563 and 14.6245 and 25.1777 and 27.4903 and 32.4994 and 60.5946 and 16.3263 and -20.6053 and 85.0469 and -9.5497 and 77.5389 and 54.5579 and 12.0114. The “NmU-25–induced G protein activation of NMU2” value (NMU2 [1]; WT, Log [NmU-25] M -9) was 14.8034 and 2.989 and 12.9021 and 10.3696 and 7.38 and -3.464 and 27.6247 and 0.6791 and -7.166 and 14.4877 and 22.3774 and 22.0623 and -4.444, the “NmU-25–induced G protein activation of NMU2” value (NMU2 [1]; WT, Log [NmU-25] M -10) was -1.975 and -9.668 and -7.55 and 11.1071 and -8.093 and -25.3752 and 0.6481 and -23.592 and -13.8096 and 16.7093 and 3.342 and 8.321 and 30.8279 and the “NmU-25–induced G protein activation of NMU2” value (NMU2 [1]; WT, Log [NmU-25] M -11) was -12.488 and 4.703 and -8.667 and -24.4881 and 6.542 and 34.4845 and -19.0587 and 46.905 and 31.0606 and -18.1089 and -17.8891 and -27.6836. For the same substance, the EC50 (NMU2 [1]; WT, agonist-induced G protein activation, HEK 293F, read-out: EC50) was 34 nM, the EC50 (NMU2 [1]; WT, earlier manuscript version quoted in peer review file, read-out: EC50) was 37 nM and the EC50 (NMU2 [1]; WT, read-out: pEC50 mean±SEM (converted)) was 34.7 nM. The “G protein activation (TRUPATH), dose-response point” value (from here on “G protein activation (TRUPATH)”) ([2]; Log [agonist] M -5) was 104.095 and 133.885 and 136.246, the “G protein activation (TRUPATH)” value ([2]; Log [agonist] M -6) was 76.3981 and 114.895 and 125.038 and the “Span” value (NMU2 E105A; E105A) was 65±13 % of WT. For the same substance, the Emax (NMU2 E105A; E105A vs WT, TRUPATH, read-out: decrease of Emax) was 50%, the “G protein activation (TRUPATH)” value (NMU2 E105A; E105A, Log [agonist] M -5) was 55.6494 and 84.0025 and 53.5618 and 51.5031 and the EC50 (NMU2 E105A; E105A, earlier manuscript version quoted in peer review file, read-out: EC50) was 1850 nM. The “reduction of agonist potency” value (NMU2 E105A; E105A, earlier manuscript version, peer review file) was “about 50 fold”, the “ΔpEC50 (from WT)” value (NMU2 E105A; E105A, individual experiments) was -1.22 and -1.57 and -1.279 and -1.924 and the EC50 (NMU2 E105A; E105A, read-out: EC50) was 2480 nM. For the same substance, the EC50 (NMU2 E105A; E105A, read-out: pEC50 mean±SEM (converted)) was 2510 nM, the “EC50 ratio EC50(mutant)/EC50(WT)” value (NMU2 W281A) was 24 and the “Span” value (NMU2 W281A) was 55±9 % of WT. For the same substance, the “G protein activation (TRUPATH)” value (NMU2 W281A; Log [agonist] M -4) was 31.1201 and 49.629, the “ΔpEC50 (from WT)” value (NMU2 W281A; individual experiments) was -1.673 and -1.545 and -1.465 and the EC50 (NMU2 W281A; read-out: EC50) was 814 nM. The EC50 (NMU2 W281A; [4]) was 813 nM, the “EC50 ratio EC50(mutant)/EC50(WT)” value (NMU2 A302H) was 5 and the “Span” value (NMU2 A302H) was 97±11 % of WT. The “G protein activation (TRUPATH)” value (NMU2 A302H; Log [agonist] M -4) was 97.2233 and 94.5294, the “G protein activation (TRUPATH)” value (NMU2 A302H; Log [agonist] M -6) was 58.8982 and 69.5076 and 54.0633 and the “ΔpEC50 (from WT)” value (NMU2 A302H; individual experiments) was -0.7587 and -0.754 and -0.956. The EC50 (NMU2 A302H; read-out: EC50) was 162 nM, the EC50 (NMU2 A302H; [4]) was 162 nM and the EC50 (NMU2 [3]; read-out: EC50, NmU-25 alone) was 17 nM. For the same substance, the EC50 (NMU2 [3]; [5]) was 16.6 nM, the EC50 (NMU2 F131L; read-out: EC50, NmU-25 alone) was 11 nM and the EC50 (NMU2 F131L; [5]) was 10.7 nM.
